Columns and labels:
[1] = tested on: endometriotic lesions; assay: In vivo model of endometriosis (lesion weight); set-up: species or system Balb/c mice; details: Example 2; each compound at its maximum tolerated level, ip once a day, 5 days a week for two weeks
Method: Balb/c donor mice were injected with estrogen (Estradiol AMSA; 3 ug/mouse) and one week later were sacrificed and the uterus was removed, the two horns isolated and reduced to small fragments. The fragments derived from the isolated uterine horns were resuspended in saline with ampicillin (1 mg/ml) and then injected into the peritoneum of two recipient Balb/c mice, previously anesthesized, through a 0.5 cm incision in the abdominal wall. […] Antibiotic (ampicillin 1 mg/ml) was administered on the day of the surgery and on the day after. […] […] Lesions can be identified as translucid isolated or grouped cysts mainly found on the abdominal wall, on the pancreas, and around the uterus. In some cases the lesions are necrotic. The lesions were carefully removed and put on a glass slide to dry for 48 hours, and then were weighed. In other experiments lesions are transferred to a lysis solution and mRNA isolated for gene expression analysis. For immunohistochemical analysis, lesions were frozen immediately after isolation.
Balb/c donor mice were injected with estrogen (Estradiol AMSA; 3 ug/mouse) and one week later were sacrificed and the uterus was removed, the two horns isolated and reduced to small fragments. The fragments derived from the isolated uterine horns were resuspended in saline with ampicillin (1 mg/ml) and then injected into the peritoneum of two recipient Balb/c mice, previously anesthetised, through a 0.5 cm incision in the abdominal wall. Antibiotic (ampicillin 1 mg/ml) was administered on the day of the surgery and on the day after. […] Dosage levels of the test compounds were at the maximum tolerated levels for the compound in question, i.e. 1-alpha-fluoro-25-hydroxy-16,23E-diene-26,27-bishomo-20-epi-cholecalciferol (Compound A) 100 ug/kg, calcitriol (Compound B) 0.3 ug/kg and 1,25-dihydroxy-21-(3-hydroxy-3-methylbutyl)-19-nor-cholecalciferol (Compound C) 3 ug/kg.
(§1) […] Lesions can be identified as translucid isolated or grouped cysts mainly found on the abdominal wall, on the pancreas, and around the uterus. In some cases the lesions are necrotic. The lesions were carefully removed and put on a glass slide to dry for 48 hours, and then were weighed.
Balb/c donor mice were injected with estrogen (Estradiol AMSA; 3 ug/mouse) and one week later were sacrificed and the uterus was removed, the two horns isolated and reduced to small fragments. The fragments derived from the isolated uterine horns were resuspended in saline with ampicillin (1 mg/ml) and then injected into the peritoneum of recipient Balb/c mice, previously anesthetised, through a 0.5 cm incision in the abdominal wall. Antibiotic (ampicillin 1 mg/ml) was administered on the day of the surgery and on the day after. […]
as §1, with “weighed. At least 10 test animals were used in each group.” for “weighed.”
Further experiments were performed using Compound A at 100 ug/kg but varying the time at which administration of the vitamin D compound was initiated and the time point at which administration was ceased. Specifically: (i) administration for 1 week prior to injection of the uterine fragments (ii) administration for 2 weeks subsequent to injection of the uterine fragments (iii) administration for 1 week prior and 2 weeks subsequent to injection of the uterine fragments (iv) administration for 2 weeks, initiated two days subsequent to injection of the uterine fragments (v) administration for 2 weeks, initiated two weeks subsequent to injection of the uterine fragments. In these experiments, subjects were sacrificed at the later of two weeks post injection or the end of the treatment period as appropriate.

[2] = Maximum tolerated dose; type: in vivo, Balb/c mice; details: Balb/c, mouse, in vivo; mice, ip; above it the compound becomes hypercalcemic

Compound	lesion weight, treated versus control (vehicle only), statistical analysis [1]	MTD [2] [µg/kg]
C=C1/C(=C\C=C2/CCC[C@]3(C)[C@@H]([C@H](C)CCCC(C)(C)O)CC[C@@H]23)C[C@@H](O)C[C@@H]1O [Compound B, calcitriol, reference compound]	significant reduction in lesion weight	0.3
CC(C)(O)CCCC(CCCC(C)(C)O)[C@H]1CC[C@H]2/C(=C/C=C3C[C@@H](O)C[C@H](O)C3)CCC[C@]12C [Compound C, 1,25-dihydroxy-21-(3-hydroxy-3-methylbutyl)-19-nor-cholecalciferol]	no significant reduction in lesion weight	3

From patent US20080280860A1, “Use of Vitamin D Compounds to Treat Endometriosis” (BioXell S.p.A., priority 2005, published 2008)
